Measured values taken from patent US20180008587A1, “THIOHYDANTOIN ANDROGEN RECEPTOR ANTAGONISTS FOR THE TREATMENT OF CANCER” (Jaressen Pharmaceutica NV, priority 2016, published 2018).
Residue numbers refer to the chain shown, from its start. pEC50: −log10 of the molar value. Like-named read-outs stand apart in the source and are kept apart here.

Assays:
Assay type in all cases: cell-based
[1] = biological target: T1, F876L mutant Androgen Receptor (AR-F876L) (Homo sapiens, UniProt P10275, F877L); assay: LNCaP-AR-F876L AG reporter assay (ARE firefly luciferase, agonist mode); details: for EC50: agonist mode, −Log10(EC50 [Molar]), read-out: LNCaP-AR-F876L AG pEC50 (converted); for Emax: read-out: LNCaP-AR-F876L AG MAX % Stim
T1 construct: expressed in transfected cells; host or cells: LNCaP (LNCaP F876L)
T1 sequence (P10275 1-920 F877L): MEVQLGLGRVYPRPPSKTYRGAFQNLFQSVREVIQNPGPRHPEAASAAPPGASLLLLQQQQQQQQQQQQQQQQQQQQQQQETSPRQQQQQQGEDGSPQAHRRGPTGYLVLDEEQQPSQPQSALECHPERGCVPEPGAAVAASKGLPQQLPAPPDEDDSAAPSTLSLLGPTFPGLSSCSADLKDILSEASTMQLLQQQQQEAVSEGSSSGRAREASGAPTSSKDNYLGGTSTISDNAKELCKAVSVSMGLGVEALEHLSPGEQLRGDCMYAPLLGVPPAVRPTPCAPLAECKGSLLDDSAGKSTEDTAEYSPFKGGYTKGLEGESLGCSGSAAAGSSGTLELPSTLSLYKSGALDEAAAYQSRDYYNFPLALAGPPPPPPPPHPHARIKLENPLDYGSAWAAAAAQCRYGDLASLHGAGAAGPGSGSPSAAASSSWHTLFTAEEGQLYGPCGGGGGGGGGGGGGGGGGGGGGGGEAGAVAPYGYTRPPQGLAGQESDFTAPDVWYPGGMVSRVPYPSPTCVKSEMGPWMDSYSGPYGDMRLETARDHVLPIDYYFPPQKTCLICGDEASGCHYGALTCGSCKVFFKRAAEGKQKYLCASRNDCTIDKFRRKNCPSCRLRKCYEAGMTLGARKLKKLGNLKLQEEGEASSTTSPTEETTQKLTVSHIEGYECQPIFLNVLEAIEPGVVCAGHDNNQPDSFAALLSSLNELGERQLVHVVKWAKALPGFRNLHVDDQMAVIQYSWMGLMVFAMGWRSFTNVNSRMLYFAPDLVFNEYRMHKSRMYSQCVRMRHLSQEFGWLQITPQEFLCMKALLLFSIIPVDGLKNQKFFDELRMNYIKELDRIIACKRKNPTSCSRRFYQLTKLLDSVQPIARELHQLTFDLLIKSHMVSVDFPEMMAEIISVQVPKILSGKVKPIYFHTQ
Outline: (§1)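 Puromycin-selected pooled LNCaP populations expressing AR-wt or AR-F876L are seeded in CSS medium and treated with compound for 20-24 h at 37 °C. For antagonist testing, agonist is added at 400 pM (WT) or 600 pM (F876L). Potency values derive from least-squares fitting of luminescence RLU.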

[2] = biological target: T2, wild-type Androgen Receptor (AR-wt) (Homo sapiens, UniProt P10275); assay: LNCaP-AR-wt ANT reporter assay (ARE firefly luciferase, antagonist mode); details: for IC50: antagonist mode, 400 pM R-1881 challenge, −Log10(IC50 [Molar]), read-out: LNCaP-AR-wt ANT pIC50 (converted); for Emax: read-out: LNCaP-AR-wt ANT MAX % Inh
T2 construct: expressed in transfected cells; host or cells: LNCaP (LNCaP AR (cs))
T2 sequence (P10275 1-920): T1 sequence (P10275 1-920 F877L) with L877F
Outline: (§2)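 Cells: stable LNCaP pools, AR-wt or AR-F876L, in charcoal-stripped serum. Agonist challenge for antagonist mode was 400 pM (WT) and 600 pM (F876L). Luminescence was measured after 20-24 h incubation.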

[3] = biological target: T1, F876L mutant Androgen Receptor (AR-F876L); assay: LNCaP-AR-F876L ANT reporter assay (ARE firefly luciferase, antagonist mode); details: for Emax: read-out: LNCaP-AR-F876L ANT MAX % Inh; for IC50: read-out: LNCaP-AR-F876L ANT pIC50 (converted)
Outline: as §2

[4] = biological target: T2, wild-type Androgen Receptor (AR-wt); assay: LNCaP-AR-wt AG reporter assay (ARE firefly luciferase, agonist mode); details: for EC50: agonist mode, −Log10(EC50 [Molar]), read-out: LNCaP-AR-wt AG pEC50 (converted); for Emax: read-out: LNCaP-AR-wt AG MAX % Stim
Outline: as §1

[5] = maximum % stimulation (agonist response) over tested concentration range
[6] = maximum % inhibition of R1881 control response over tested concentration range

EC50 [1] [nM]	Emax [1, 5] [%]	IC50 [2] [nM]	Emax [2, 6] [%]	Emax [3, 6] [%]	IC50 [3] [nM]	EC50 [4] [nM]	Emax [4, 5] [%]	Structure (SMILES)	pEC50 [1]	Emax [1] [%]	Emax [2] [%]	Emax [3] [%]	pEC50 [4]	Emax [4] [%]
> 15100	0.3	1230	99.6	100	490	> 15100	0.3	Cc1cc(N2C(=O)C3(CCC3)N(c3ccc(C(=O)NCc4cccs4)c(F)c3)C2=S)cnc1C#N [Cpd 33, 4-[6-(6-cyano-5-methyl-3-pyridyl)-5-oxo-7-thioxo-6,8-diazaspiro[3.4]octan-8-yl]-2-fluoro-N-(2-thienylmethyl)benzamide]	–	–	–	–	–	–
> 15100	0.3	1200	99.3	96.5	398	> 15100	0.3	N#Cc1ncc(N2C(=O)C3(CCC3)N(c3ccc(C(=O)NCCCN4CCCC4=O)c(F)c3)C2=S)cc1C(F)(F)F [Cpd 37, 4-[6-[6-cyano-5-(trifluoromethyl)-3-pyridyl]-5-oxo-7-thioxo-6,8-diazaspiro[3.4]octan-8-yl]-2-fluoro-N-[3-(2-oxopyrrolidin-1-yl)propyl]benzamide]	–	–	–	–	–	–
> 15100	–	398	100	99	229	> 15100	–	N#Cc1ncc(N2C(=O)C3(CCC3)N(c3ccc(OC(F)(F)F)cc3)C2=S)cc1C(F)(F)F [Cpd 38, 5-[5-oxo-7-thioxo-8-[4-(trifluoromethoxy)phenyl]-6,8-diazaspiro[3.4]octan-6-yl]-3-(trifluoromethyl)pyridine-2-carbonitrile]	–	0.3	–	–	–	1.2
> 15100	0.3	1820	97.2	94.4	1550	> 15100	0.2	CNC(=O)c1ccc(N2C(=S)N(c3cnc(C#N)c(C(F)F)c3)C(=O)C23CCC3)cc1F [Cpd 39, 4-[6-[6-cyano-5-(difluoromethyl)-3-pyridyl]-5-oxo-7-thioxo-6,8-diazaspiro[3.4]octan-8-yl]-2-fluoro-N-methyl-benzamide]	–	–	–	–	–	–
> 15100	0.3	282	102	102	186	> 15100	-0.2	CCOC(=O)CNC(=O)c1ccc(N2C(=S)N(c3cnc(C#N)c(C(F)(F)F)c3)C(=O)C23CCC3)cc1F [Cpd 41, ethyl 2-[[4-[6-[6-cyano-5-(trifluoromethyl)-3-pyridyl]-5-oxo-7-thioxo-6,8-diazaspiro[3.4]octan-8-yl]-2-fluoro-benzoyl]amino]acetate]	–	–	–	–	–	–
> 15100	0.1	1020	101	100	437	> 15100	0.2	Cc1cc(N2C(=O)C3(CCC3)N(c3ccc(C(=O)Nc4ccnn4C)c(F)c3)C2=S)cnc1C#N [Cpd 45, 4-[6-(6-cyano-5-methyl-3-pyridyl)-5-oxo-7-thioxo-6,8-diazaspiro[3.4]octan-8-yl]-2-fluoro-N-(2-methylpyrazol-3-yl)benzamide]	–	–	–	–	–	–
> 15100	–	245	101	99.6	195	> 15100	–	N#Cc1ncc(N2C(=O)C3(CCC3)N(c3ccc(O)cc3F)C2=S)cc1C(F)(F)F [Cpd 47, 5-[8-(2-fluoro-4-hydroxy-phenyl)-5-oxo-7-thioxo-6,8-diazaspiro[3.4]octan-6-yl]-3-(trifluoromethyl)pyridine-2-carbonitrile]	–	0.4	–	–	–	0.9
> 15100	0.5	617	96.3	99.2	398	> 15100	1.1	Cc1cc(N2C(=O)C3(CCC3)N(c3ccc(O)cc3)C2=S)cnc1C#N [Cpd 48, 5-[8-(4-hydroxyphenyl)-5-oxo-7-thioxo-6,8-diazaspiro[3.4]octan-6-yl]-3-methyl-pyridine-2-carbonitrile]	–	–	–	–	–	–

Structure (SMILES)	EC50 [1] [nM]	Emax [1, 5] [%]	IC50 [2] [nM]	Emax [2, 6] [%]	Emax [3, 6] [%]	IC50 [3] [nM]	EC50 [4] [nM]	Emax [4, 5] [%]	pEC50 [1]	Emax [1] [%]	Emax [2] [%]	Emax [3] [%]	pEC50 [4]	Emax [4] [%]
N#Cc1ncc(N2C(=O)C3(CCC3)N(c3cccc4ccccc34)C2=S)cc1C(F)(F)F [Cpd 34, 5-[8-(1-naphthyl)-5-oxo-7-thioxo-6,8-diazaspiro[3.4]octan-6-yl]-3-(trifluoromethyl)pyridine-2-carbonitrile]	–	–	562	–	–	617	–	–	< 4.82	0.2	99.7	99.4	< 4.82	-0.1
N#Cc1ncc(N2C(=O)C3(CCC3)N(c3ccc(C(=O)NCc4ccccc4)c(F)c3)C2=S)cc1C(F)(F)F [Cpd 36, N-benzyl-4-[6-[6-cyano-5-(trifluoromethyl)-3-pyridyl]-5-oxo-7-thioxo-6,8-diazaspiro[3.4]octan-8-yl]-2-fluoro-benzamide]	–	–	1480	–	–	851	–	–	< 4.82	0.3	96.1	91.3	< 4.82	0.9
N#Cc1ncc(N2C(=O)C3(CCC3)N(c3ccc(C(=O)NCc4ccccn4)c(F)c3)C2=S)cc1C(F)(F)F [Cpd 44, 4-[6-[6-cyano-5-(trifluoromethyl)-3-pyridyl]-5-oxo-7-thioxo-6,8-diazaspiro[3.4]octan-8-yl]-2-fluoro-N-(2-pyridylmethyl)benzamide]	–	–	195	–	–	178	–	–	< 4.82	0	103	101	< 4.82	-0.2
COCCNC(=O)c1ccc(N2C(=S)N(c3cnc(C#N)c(C(F)(F)F)c3)C(=O)C23CCC3)cc1F [Cpd 46, 4-[6-[6-cyano-5-(trifluoromethyl)-3-pyridyl]-5-oxo-7-thioxo-6,8-diazaspiro[3.4]octan-8-yl]-2-fluoro-N-(2-methoxyethyl)benzamide]	–	–	891	–	–	631	–	–	< 4.82	0.2	99.9	98.3	< 4.82	-0.1
